{"source": "patent EP1482955B1", "about": "“PROPHYLACTIC AND THERAPEUTIC TREATMENT OF […] OTHER DISEASES WITH IMMU[…]” (CORIXA CORPORATION, priority 2002, dated 2003)", "key": {"[1]": {"test_system": "Influenza A/HK/68", "assay": "Protection against lethal influenza challenge by prophylactic intranasal administration", "type": "in vivo", "conditions": "BALB/c mice; for protection when compared with the vehicle control: 20 µg intranasally 48 hours prior to challenge (5 LD50), judged by survival, clinical symptoms and prevention of weight loss for 21 days; for survival rate: 20 µg intranasally 48 hours prior to lethal intranasal challenge (5 LD50), followed 21 days", "description": "This example provides experiments evaluating protection against a lethal challenge with influenza in cyclic AGP-treated mice. BALB/c mice (10 mice per group) were treated intranasally with 20 µg of the compounds of examples 1, 2 and 3, or with MPL, 48 hours prior to an lethal intranasal challenge of Influenza A/HK/68 (5 LD50). Protection was judged by survival, observations of clinical symptoms (ruffled fur, hunched posture and labored breathing), and prevention of weight loss for 21 days following the challenge."}, "[2]": {"test_system": "L. monocytogenes 10403 serotype", "assay": "Murine Listeria monocytogenes challenge model (induction of non-specific resistance)", "type": "in vivo", "conditions": "mice, 1 µg intravenously in 0.2% TEOA two days before intravenous challenge with ~10^5 L. monocytogenes; spleen CFUs two days after challenge", "description": "This example provides experiments evaluating the induction of non-specific resistance in the murine Listeria monocytogenes challenge model performed using the compounds prepared in examples 1, 2 and 3. Mice (5 per group) were treated intravenously with the 1 µg of a cyclic AGP or MPL solublized in 0.2% triethanolamine (TEOA). Two days later the mice were challenged intravenously with a ~10^5 L. monocytogenes 10403 serotype (stock culture provided by Jory Baldridge, Washington State University, Pullman, WA.). Two days after the challenge the mice were sacrificed and the number of colony forming units (CFUs) in the spleens of individual mice were determined by plating 10-fold serial dilutions of splenic homogenates on tryptic soy agar plates. The degree of protection afforded by a given AGP or MPL was calculated by subtracting the average number of bacteria per spleen (log10 value) in the group of mice treated with a given compound, from the average number of bacteria per spleen (log10 value) in a control group that was \"sham\" treated with vehicle (0.2% TEOA) prior to challenge with L. monocytogenes."}}}
{"molecule": "CCCCCCCCCCCC(=O)O[C@H](CCCCCCCCCCC)CC(=O)N[C@H]1[C@H](OC[C@@H]2CCCN2C(=O)C[C@@H](CCCCCCCCCCC)OC(=O)CCCCCCCCCCC)O[C@H](CO)[C@@H](OP(=O)(O)O)[C@@H]1OC(=O)C[C@@H](CCCCCCCCCCC)OC(=O)CCCCCCCCCCC.CCN(CC)CC", "note": "[Example 2, N-[(R)-3-Dodecanoyloxytetradecanoyl]-(S)-2-pyrrolidinylmethyl 2-Deoxy-4-O-phosphono-2-[(R)-3-dodecanoyloxy-tetradecanoylamino]-3-O-[(R)-3-dodecanoyloxytetradecanoyl]-β-D-glucopyranoside Triethylammonium Salt]", "values": [{"measurement": "protection when compared with the vehicle control", "setting": "[1]", "result": "enhanced protection"}, {"measurement": "survival rate", "setting": "[1]", "result": 40, "unit": "%"}, {"measurement": "protection (average number of bacteria per spleen, log10 value, vehicle control group minus treated group)", "setting": "[2]", "result": 0.7, "unit": "log 10 units"}]}
{"molecule": "CCCCCCCCCCC[C@H](CC(=O)N[C@H]1[C@H](OC[C@@H]2CCCN2C(=O)C[C@@H](CCCCCCCCCCC)OC(=O)CCCCCCCCC)O[C@H](CO)[C@@H](OP(=O)(O)O)[C@@H]1OC(=O)C[C@@H](CCCCCCCCCCC)OC(=O)CCCCCCCCC)OC(=O)CCCCCCCCC.CCN(CC)CC", "note": "[Example 3, N-[(R)-3-Decanoyloxytetradecanoyl]-(S)-2-pyrrolidinylmethyl 2-Deoxy-4-O-phosphono-2-[(R)-3-Decanoyloxytetradecanoylamino]-3-O-[(R)-3-Decanoyloxytetradecanoyl]-β-D-glucopyranoside Triethylammonium Salt]", "values": [{"measurement": "protection when compared with the vehicle control", "setting": "[1]", "result": "enhanced protection"}, {"measurement": "survival rate", "setting": "[1]", "result": 60, "unit": "%"}, {"measurement": "protection (average number of bacteria per spleen, log10 value, vehicle control group minus treated group)", "setting": "[2]", "result": "~ 0.9 log 10 units"}]}
{"molecule": "N-[(R)-3-Tetradecanoyloxytetradecanoyl]-(S)-2-pyrrolidinylmethyl 2-Deoxy-4-O-phosphono-2-[(R)-3-tetradecanoyloxytetradecanoylamino]-3-O-[(R)-3-tetradecanoyloxytetradecanoyl]-β-D-glucopyranoside Triethylammonium Salt [Example 1]", "values": [{"measurement": "survival rate", "setting": "[1]", "result": "No mice"}, {"measurement": "protection (average number of bacteria per spleen, log10 value, vehicle control group minus treated group)", "setting": "[2]", "result": 0.2, "unit": "log 10 units"}]}
